This is an account of results in US9623065B2, “Kind of polygonum capitatum extract, its application and a preparation containing the polygonum capitatum extract” (Zhejiang Sanzheng Biotechnology Co., Ltd., priority 2013, dated 2017).

In assay [1] the test system is alloxan hyperglycemia model mice. As to the kind of experiment: Efficacy test of tablet, oral liquid, capsule, granules in alloxan hyperglycemia model mice (Test Cases 5-8). In kind it is in vivo, KM mice. To be noted: dose 0.5 mg.
Method: Take 80 KM mice, with a body weight of (20+2) g, half male and half female, and let them to adapt to the environment for 7 days. Randomly select 6 male mice and female mice as the blank control group, fasted and supplied with water for 18 h. Prepare 1.1% alloxan with physiological saline, and keep it in ice water bath. Carry out intraperitoneal injection according to a dose of 110 mg/kg, the mice of the control group are to be injected with physiological saline, and then fast them 12 hours, use the same modeling method in the second day. 3 days later (72 h, restore to normal diet), then fast 12 h, and then cut the tail to take a few drops of blood. The fasting blood glucose was measured with glucose oxidase method. The mice that have a blood glucose value greater than 11.1 mmol/L are mice that have been successfully modeled.
Among the 80 KM mice, 12 are as the blank control group, the remaining mice are used to modeling. After modeling, find the mice with the blood glucose values measured more than 11.1 mmol/L. In the experiment design process each group is set with 12 mice, the number of female mice are larger in the experimental results, so the number of female mice designed a dose is 6-8 only (8 with only statistical significance), the tails of some of the male model mice may be damaged, which is not conducive to the blood sampling in the next step, therefore it is not designed in this experimental group.
Use surgical scissors to cut 2-3 mm of a mouse tail, press the tail to take a few drops of blood and place in the EP tube, first add 12 μL 15 g/L bi-potassium EDTA solution, high speed centrifuge it (10000 r/min) for 5 min. Wait till the blood is stratified, take the upper layer serum 10 μL, plus 30 μL physiological saline, shake it evenly; and take 10 μL the dilute serum and put into a EP tube, add 1 mL glucose (Glu) oxidase, shake evenly, keep at 37° C. for 15 min, the sample (U) is to be measured. Then take the physiological saline and calibrator (c) 10 μL respectively, add 1 mL glucose oxidase, shake it evenly, keep at 37° C. for 15 min, determine the absorbance (A) with 505 nm wavelength after adjusting the blank tube to zero. Sample Glu (mmol/L)=Au/Ac*Cc
Determine the fasting blood glucose values corresponding to the administration of 7 d, 14 d, 21 d and 28 d after the success of modeling (fasted but water is supplied for 12 h).
(§1) This experiment adopts the GOD-POD method for determination of serum glucose concentration, the principle of this method is POD in serum glucose is oxidized into D-gluconic acid in the presence of GOD, and generate H2O2; the latter and 4-amino antipyrine and phenol form red benzophenone imine under the effect of peroxidase (POD) benzophenone imine, the depth of the color of the ketone compounds is directly proportional to the content of glucose. Determine the absorbance values of the standard tube and the sample tube respectively, and then calculate the content of glucose.
The test system is the same in assay [2]. As to the kind of experiment: Blood glucose of alloxan hyperglycemia model mice, comparison of extraction methods (Test Case 4). To be noted: dose 0.5 mg, fasting. The class given is in vivo, KM mice.
Method: Take 460 KM mice, with a weight of (20±2) g, half male and half female, let them to adapt to the environment for 7 days. Randomly select 6 male mice and 6 female mice as the blank control group, keep them fasted but water is supplied to them for 18 hours, use the physiological saline to prepare the 1.1% alloxan, and store it in an ice water bath. Carry out the intraperitoneal injection according to the ratio of 110 mg/kg, the control group is injected with the isodose physiological saline, let them eat after 1 h recovery. Use the same modeling method in the second day. 3 days later (72 h, normal diet), then fasting 12 hours, and then cut their tails to take a few drops of blood, and then fasting blood glucose is measured with glucose oxidase method, the mice with the blood glucose value greater than 11.1 mmol/L are the mice that successfully modeled.
Among the 460 KM mice, 12 of them belong to the blank control group, the remaining mice are used to modeling. After the modeling the mice with the blood glucose values measured greater than 11.1 mmol/L. In the design process each experimental group has 12 mice.
Take the model mice, randomly divide then into 16 groups, namely the water extraction (high, medium and low) dose group, the alcohol extraction (high, medium and low) dose group, the water and alcohol extraction (high, medium and low) dose group, the modeling group, positive group and blank control group (normal mice), please refer to Table 1.
Use surgical scissors to cut 2-3 mm of a mouse tail, press the tail to take a few drops of blood and place in the EP tube, first add 12 μL 15 g/L bipotassium EDTA solution, high speed centrifuge it (10000 r/min) for 5 min. Wait till the blood is stratified, take the upper layer serum 10 μL, plus 30 μL physiological saline, shake it evenly; and take 10 μL the dilute serum and put into a EP tube, add 1 mL glucose (Glu) oxidase, shake it evenly, keep at 37° C. for 15 min, the sample (U) is to be measured. Then take the physiological saline and calibrator (c) 10 μL respectively, add 1 mL glucose oxidase, shake evenly, keep at 37° C. for 15 min, determine the absorbance (A) with 505 nm wavelength after adjusting the blank tube to zero. […]
as §1
Assay [3] deals with 3T3-L1 adipocyte IR model. As to the kind of experiment: Influence of glucose utilization on the 3T3-L1 adipocyte insulin resistance (IR) model. In kind it is cell-based, mouse. Here is the method:
3T3-L1 mouse embryonic fibroblast cells, are derived from the Institute of Life Science of Chinese Academy of Sciences. Plant the 3T3-L1 preadipocytes into the 25 cm2 cell culture plate, add 6 ml normal culture medium, keep it at culture conditions of 37° C. and 5% CO2, change liquid in the next day. Pass or store it in freezing conditions after the 80% cell fused.
Inoculate the 3T3-L1 preadipocytes at the density of 5×10^3 in a 24-hole culture plate, wait until the cells grow to contact inhibition, replace the cell culture medium with differentiation liquid A (0.5 mmol/L IBMX, 0.1 umol/L DEX, 10 mg/L INS) and culture them for 48 h, then replace with the induction differentiation liquid (10 mg/L) to continuously culture for 48 h B, change the normal culture medium to continue culturing, and change the liquid once every 2 days, 90% of the above induced differentiation cells will have a mature phenotype after 6-8 days.
After counting the 3T3-L1 cells in logarithmic growth phase, inoculate them at the density of 5*10^3 each hole onto 24-hole culture plate, then put the culture plate into the CO2 incubator, under the conditions of a temperature of 37° C., 5% CO2 and saturated humidity, culture them to growth inhibition, induction differentiation to mature adipocytes. Add the following processing factors: • The control group shall be continued with their normal culture medium (DMEM high glucose culture liquid containing 10% FBS) • The model group shall be given 1 umol DEX normal culture medium; • Other cells shall be used in each drug group experiment
After counting the 3T3-L1 cell in logarithmic growth phase, inoculate each hole with density of 5×10^3 cells in 24-hole culture plate. According to the IR models preparation method of 2.3, divide the mature 3T3-L1 adipocytes into a normal culture group and model group, the model group can also be divided into a model control group and each drug group. The model group shall be given 1 umol DEX to react for 48 h. After the models are built, administer the drug as per the experimental groups and the concentration of drug, in 3 parallel plates. In 24 h, 48 h the cell morphologies shall be observed and take the supernatant to be tested on the semi automatic biochemical instrument, determine the glucose (GLU) content in the culture solution according to the descriptions of the kit.

`C[C@H]1O[C@H](O[C@H]2[C@H](O)[C@@H](O)[C@@H](O[C@H]3[C@H](O)[C@@H](O)C(O)O[C@@H]3CO)O[C@@H]2CO)[C@H](O)[C@@H](O)[C@@H]1N[C@H]1C=C(CO)[C@@H](O)[C@H](O)[C@H]1O` (stereo partly shown) [Acarbose]: the “Blood glucose level 7 d” value was 19.23 ± 7.54 mmol/L in assay [1] (Table 8); 19.23 ± 7.54 mmol/L in assay [1] (Table 9); 19.23 ± 7.54 in assay [1] (Table 10, in mmol/L); 19.23 ± 7.54 in assay [1] (Table 11, in mmol/L); 19.23 ± 7.54 mmol/L in assay [2] (7 d). Besides, the “Blood glucose level 14 d” value is 18.00 ± 6.99 mmol/L in assay [1] (Table 8); 18.00 ± 6.99 mmol/L in assay [1] (Table 9); 18.00 ± 6.99 in assay [1] (Table 10, in mmol/L); 18.00 ± 6.99 in assay [1] (Table 11, in mmol/L); 18.00 ± 6.99 mmol/L in assay [2] (14 d). Also, the “Blood glucose level 21 d” value was 19.99 ± 6.69 mmol/L in assay [1] (Table 8); 19.99 ± 6.69 mmol/L in assay [1] (Table 9); 19.99 ± 6.69 in assay [1] (Table 10, in mmol/L); 19.99 ± 6.69 in assay [1] (Table 11, in mmol/L); 19.99 ± 6.69 mmol/L in assay [2] (21 d). In addition, the “Blood glucose level 28 d” value in assay [1] (Table 8) stood at 22.81 ± 7.72 mmol/L; in assay [1] (Table 9), 22.81 ± 7.72 mmol/L; in assay [1] (Table 10, in mmol/L), 22.81 ± 7.72; in assay [1] (Table 11, in mmol/L) it was 22.81 ± 7.72; in assay [2] (28 d) it was 22.81 ± 7.72 mmol/L.

Regarding `CN(CCOc1ccc(CC2SC(=O)NC2=O)cc1)c1ccccn1` (stereo not shown) [ROG], the “Average 24 h GLU content” value in assay [3] (3.125 ug/ml, first series) came to 22.24 mmol/L; in assay [3] (12.5 ug/ml, first series), 22.04 mmol/L; in assay [3] (50 ug/ml, culture supernatant, first series (model control 23.08)) it was 21.84 mmol/L; in assay [3] (100 ug/ml, second series (model control 27.72)), 25.38 mmol/L. Further, the “Average 48 h GLU content” value came out at 20.46 mmol/L in assay [3] (3.125 ug/ml, first series); 21.67 mmol/L in assay [3] (12.5 ug/ml, first series); 20.53 mmol/L in assay [3] (50 ug/ml, culture supernatant, first series (model control 22.18)); 24.64 mmol/L in assay [3] (100 ug/ml, second series (model control 26.27)).
